# Reference: patent publication US11178873B2, “Cyclic N-carboxamide compounds useful as herbicides” (FMC CORPORATION, priority 2015, dated 2021)
# How the values were obtained:
# Format in all cases: in vivo
# [1] = system: rice (Oryza sativa); test: Test B flooded paddy test, rice; conditions: Flood, 250 g ai/ha; scale 0 to 100 (0 no effect, 100 complete control); 13 to 15 d
# Outline: (§1)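 Plants at the 2-leaf stage were flooded to 3 cm above soil, and test compounds were applied directly into the paddy water, which was held at that depth throughout. After 13 to 15 d in a greenhouse, injury was rated visually against untreated controls on a 0–100 scale (0 no effect, 100 complete control).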
# [2] = system: foxtail, giant (giant foxtail, Setaria faberii); test: Test A postemergence, foxtail, giant; conditions: 0 to 100 scale, 0 no effect, 100 complete control
# Outline: (§2)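 Greenhouse pot test, loam/sand soil. Pre: directed soil spray at planting; post: foliar spray at 1–2 leaf stage, 2–10 cm height. Formulation: non-phytotoxic solvent + surfactant. Visual injury vs untreated controls at ~10 d, scored 0–100 (100 = complete control).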
# [3] = system: ryegrass, Italian (Italian ryegrass, Lolium multiflorum); test: Test A postemergence, ryegrass, Italian; conditions: 0 to 100 scale, 0 no effect, 100 complete control
# Outline: as §2
# [4] = system: barnyardgrass (Echinochloa crus-galli); test: Test A postemergence, barnyardgrass; conditions: 0 to 100 scale, 0 no effect, 100 complete control
# Outline: as §2
# [5] = system: kochia (Kochia scoparia); test: Test A postemergence, kochia; conditions: 0 to 100 scale, 0 no effect, 100 complete control
# Outline: as §2
# [6] = system: corn (Zea mays); test: Test A postemergence, corn; conditions: 0 to 100 scale, 0 no effect, 100 complete control
# Outline: as §2
# [7] = system: ragweed (common ragweed, Ambrosia elatior); test: Test A preemergence, ragweed; conditions: 0 to 100 scale, 0 no effect, 100 complete control
# Outline: as §2
# [8] = system: foxtail, giant (giant foxtail, Setaria faberii); test: Test A preemergence, foxtail, giant; conditions: 0 to 100 scale, 0 no effect, 100 complete control
# Outline: as §2
# [9] = system: ryegrass, Italian (Italian ryegrass, Lolium multiflorum); test: Test A preemergence, ryegrass, Italian; conditions: 0 to 100 scale, 0 no effect, 100 complete control
# Outline: as §2
# [10] = system: pigweed (Amaranthus retroflexus); test: Test A postemergence, pigweed; conditions: 0 to 100 scale, 0 no effect, 100 complete control
# Outline: as §2
# [11] = system: sedge, umbrella (small-flower umbrella sedge, Cyperus difformis); test: Test B flooded paddy test, sedge, umbrella; conditions: Flood, 250 g ai/ha; scale 0 to 100 (0 no effect, 100 complete control); 13 to 15 d
# Outline: as §1
# [12] = system: kochia (Kochia scoparia); test: Test A preemergence, kochia; conditions: 0 to 100 scale, 0 no effect, 100 complete control
# Outline: as §2
# [13] = system: barnyardgrass (Echinochloa crus-galli); test: Test A preemergence, barnyardgrass; conditions: 0 to 100 scale, 0 no effect, 100 complete control
# Outline: as §2
# [14] = system: pigweed (Amaranthus retroflexus); test: Test A preemergence, pigweed; conditions: 0 to 100 scale, 0 no effect, 100 complete control
# Outline: as §2
# [15] = system: galium (catchweed bedstraw, Galium aparine); test: Test A postemergence, galium; conditions: 0 to 100 scale, 0 no effect, 100 complete control
# Outline: as §2
# [16] = system: barnyardgrass (Echinochloa crus-galli); test: Test B flooded paddy test, barnyardgrass; conditions: Flood, 250 g ai/ha; scale 0 to 100 (0 no effect, 100 complete control); 13 to 15 d
# Outline: as §1
# [17] = system: blackgrass (Alopecurus myosuroides); test: Test A postemergence, blackgrass; conditions: 0 to 100 scale, 0 no effect, 100 complete control
# Outline: as §2
# [18] = system: ducksalad (Heteranthera limosa); test: Test B flooded paddy test, ducksalad; conditions: Flood, 250 g ai/ha; scale 0 to 100 (0 no effect, 100 complete control); 13 to 15 d
# Outline: as §1
# [19] = system: ragweed (common ragweed, Ambrosia elatior); test: Test A postemergence, ragweed; conditions: 0 to 100 scale, 0 no effect, 100 complete control
# Outline: as §2
# [20] = system: wheat (Triticum aestivum); test: Test A postemergence, wheat; conditions: 0 to 100 scale, 0 no effect, 100 complete control
# Outline: as §2
Compound,"Plant response rating, Rice [1]","Plant response rating, Foxtail, Giant ([2]; 31 g ai/ha)","Plant response rating, Foxtail, Giant ([2]; 125 g ai/ha)","Plant response rating, Ryegrass, Italian ([3]; 31 g ai/ha)","Plant response rating, Ryegrass, Italian ([3]; 125 g ai/ha)","Plant response rating, Barnyardgrass ([4]; 31 g ai/ha)","Plant response rating, Barnyardgrass ([4]; 125 g ai/ha)","Plant response rating, Kochia ([5]; 31 g ai/ha)","Plant response rating, Kochia ([5]; 125 g ai/ha)","Plant response rating, Corn ([6]; 31 g ai/ha)","Plant response rating, Corn ([6]; 125 g ai/ha)","Plant response rating, Ragweed ([7]; 31 g ai/ha)","Plant response rating, Ragweed ([7]; 125 g ai/ha)","Plant response rating, Foxtail, Giant ([8]; 31 g ai/ha)","Plant response rating, Foxtail, Giant ([8]; 125 g ai/ha)","Plant response rating, Ryegrass, Italian ([9]; 31 g ai/ha)","Plant response rating, Ryegrass, Italian ([9]; 125 g ai/ha)","Plant response rating, Pigweed ([10]; 31 g ai/ha)","Plant response rating, Pigweed ([10]; 125 g ai/ha)","Plant response rating, Sedge, Umbrella [11]",other results
CN1CC(c2ccc(C(F)(F)F)cc2)N(C(=O)Nc2ccc(F)cc2F)C1=O (stereo not drawn) [Compound 15],0,0,0,0,0,0,0,0,0,0,0,0,0,0,0,0,0,0,0,0,"Plant response rating, Kochia ([12]; 31 g ai/ha): 0; Plant response rating, Kochia ([12]; 125 g ai/ha): 0; Plant response rating, Barnyardgrass ([13]; 31 g ai/ha): 0; Plant response rating, Barnyardgrass ([13]; 125 g ai/ha): 0; Plant response rating, Pigweed ([14]; 31 g ai/ha): 0; Plant response rating, Pigweed ([14]; 125 g ai/ha): 0; Plant response rating, Galium ([15]; 31 g ai/ha): 0; Plant response rating, Galium ([15]; 125 g ai/ha): 0; Plant response rating, Barnyardgrass [16]: 10; Plant response rating, Blackgrass ([17]; 31 g ai/ha): 0; Plant response rating, Blackgrass ([17]; 125 g ai/ha): 0; Plant response rating, Ducksalad [18]: 60; Plant response rating, Ragweed ([19]; 31 g ai/ha): 0; Plant response rating, Ragweed ([19]; 125 g ai/ha): 0; Plant response rating, Wheat ([20]; 31 g ai/ha): 0; Plant response rating, Wheat ([20]; 125 g ai/ha): 0"
CN1CC(c2cccc(C(F)(F)F)c2)N(C(=O)Nc2ccccc2F)C1=O (stereo not drawn) [Compound 16],0,0,10,0,0,0,10,0,0,0,0,0,0,30,70,0,0,0,0,0,"Plant response rating, Kochia ([12]; 31 g ai/ha): 0; Plant response rating, Kochia ([12]; 125 g ai/ha): 0; Plant response rating, Barnyardgrass ([13]; 31 g ai/ha): 0; Plant response rating, Barnyardgrass ([13]; 125 g ai/ha): 30; Plant response rating, Pigweed ([14]; 31 g ai/ha): 0; Plant response rating, Pigweed ([14]; 125 g ai/ha): 0; Plant response rating, Galium ([15]; 31 g ai/ha): 0; Plant response rating, Galium ([15]; 125 g ai/ha): 0; Plant response rating, Barnyardgrass [16]: 0; Plant response rating, Blackgrass ([17]; 31 g ai/ha): 0; Plant response rating, Blackgrass ([17]; 125 g ai/ha): 0; Plant response rating, Ducksalad [18]: 0; Plant response rating, Ragweed ([19]; 31 g ai/ha): 0; Plant response rating, Ragweed ([19]; 125 g ai/ha): 0; Plant response rating, Wheat ([20]; 31 g ai/ha): 0; Plant response rating, Wheat ([20]; 125 g ai/ha): 0"
CN1CC(c2cccc(C(F)(F)F)c2)N(C(=O)Nc2ccc(F)cc2F)C1=O (stereo not drawn) [Compound 17],0,0,10,0,0,0,10,0,0,0,0,0,0,50,80,0,0,0,0,0,"Plant response rating, Kochia ([12]; 31 g ai/ha): 0; Plant response rating, Kochia ([12]; 125 g ai/ha): 20; Plant response rating, Barnyardgrass ([13]; 31 g ai/ha): 0; Plant response rating, Barnyardgrass ([13]; 125 g ai/ha): 50; Plant response rating, Pigweed ([14]; 31 g ai/ha): 0; Plant response rating, Pigweed ([14]; 125 g ai/ha): 0; Plant response rating, Galium ([15]; 31 g ai/ha): 0; Plant response rating, Galium ([15]; 125 g ai/ha): 0; Plant response rating, Barnyardgrass [16]: 0; Plant response rating, Blackgrass ([17]; 31 g ai/ha): 0; Plant response rating, Blackgrass ([17]; 125 g ai/ha): 0; Plant response rating, Ducksalad [18]: 40; Plant response rating, Ragweed ([19]; 31 g ai/ha): 0; Plant response rating, Ragweed ([19]; 125 g ai/ha): 0; Plant response rating, Wheat ([20]; 31 g ai/ha): 0; Plant response rating, Wheat ([20]; 125 g ai/ha): 0"
CN1CC(c2cccc(C(F)(F)F)c2)N(C(=O)Nc2cccc(F)c2F)C1=O (stereo not drawn) [Compound 18],0,10,50,0,0,10,30,0,0,0,0,0,0,70,80,0,0,0,0,0,"Plant response rating, Kochia ([12]; 31 g ai/ha): 0; Plant response rating, Kochia ([12]; 125 g ai/ha): 0; Plant response rating, Barnyardgrass ([13]; 31 g ai/ha): 20; Plant response rating, Barnyardgrass ([13]; 125 g ai/ha): 70; Plant response rating, Pigweed ([14]; 31 g ai/ha): 0; Plant response rating, Pigweed ([14]; 125 g ai/ha): 0; Plant response rating, Galium ([15]; 31 g ai/ha): 0; Plant response rating, Galium ([15]; 125 g ai/ha): 0; Plant response rating, Barnyardgrass [16]: 0; Plant response rating, Blackgrass ([17]; 31 g ai/ha): 0; Plant response rating, Blackgrass ([17]; 125 g ai/ha): 0; Plant response rating, Ducksalad [18]: 65; Plant response rating, Ragweed ([19]; 31 g ai/ha): 0; Plant response rating, Ragweed ([19]; 125 g ai/ha): 0; Plant response rating, Wheat ([20]; 31 g ai/ha): 0; Plant response rating, Wheat ([20]; 125 g ai/ha): 0"
